Data on one compound can be found in patent US20260216134A1, “CHARGED PI-CONJUGATED MOLECULES FOR THE TREATMENT OF MICROBIAL INFECTIONS” (priority 2023, published 2026).

Some results are limits rather than exact numbers.

In data set [1] the test system is HEK293 (epithelial-like kidney cells). Put plainly: Presto Blue viability assay, HEK293. The settings on record: HEK293, Presto Blue, 8 h treatment; read-out: IC50 (concentration needed to inhibit cell viability by 50%). Format: cell-based, human. How it is done:
The biocompatibility of charged pi-conjugated compounds with mammalian cell lines was evaluated by studying the effects of different charged pi-conjugated compound concentrations on the viability of two mammalian cell lines: A549 (epithelial-like lung cells) and HEK293 (epithelial-like kidney cells). […] Dose-response curves were used to determine IC50 values, that is, the concentration of charged pi-conjugated compound needed to inhibit cell viability by 50%. […] The MIC of MRSA USA300 was used to calculate the therapeutic index. MRSA USA300 is a major contributor to community-associated MRSA infections, including skin and soft tissue infections, bacteraemia, endocarditis, bone and joint infections and nosocomial infections. […]
The biocompatibility of charged pi-conjugated compounds with mammalian cell lines was assessed by determining their impact on the mitochondrial activity of human alveolar basal epithelial adenocarcinoma cells (A549) and human embryonic kidney cells (HEK293T) cells, using the Presto Blue assay according to the manufacturer's protocol. […] After 8 h, Presto Blue cell viability reagent (Thermo Fisher Scientific, Waltham, MA, USA) was added to the cells, and after 2 h of incubation, fluorescence was measured using a microplate reader (BioTek Instruments Inc., Winooski, VT, USA). […] The therapeutic index was calculated from the ratio between IC50 and the MIC.

Another data set has as its system S. aureus ATCC 25923. Description: Single-step isolation of spontaneous resistant mutants. Format: cell-based, Staphylococcus aureus. An excerpt: FIGS. 10A-10C show the development of resistance and mutation rate of bacterial strains subjected to repeated exposure to charged pi-conjugated compounds. (FIG. 10A) Stepwise development of resistance in B. cereus CECT131123, E. faecalis ATCC 29212, S. aureus ATCC 25923, and S. pneumoniae ATCC 49619. Bacterial strains were repeatedly exposed to charged pi-conjugated compounds or the conventional antibiotics ciprofloxacin (CIP), linezolid (LNZ) and vancomycin (VAN) for over 30 cycles. The y-axis indicates the MIC fold change, reflecting increased resistance over repeated treatment. (FIG. 10B) Mutation rate, represented as the frequency of rifampin-resistant cells, in S. aureus ATCC 25923 subjected to repeated cycles of treatment with charged pi-conjugated compounds or the conventional antibiotic ciprofloxacin (CIP). (FIG. 10C) Single-step resistance assessment of spontaneous mutants. […]
To estimate the occurrence of spontaneous charged pi-conjugated compound-resistant mutants, S. aureus cells cultured overnight were resuspended in PBS to yield 10^10 cells mL^−1 and then plated on both selective (charged pi-conjugated compound-containing) and non-selective LB agar plates. After incubation at 37° C. for 24-48 hours, colonies were counted, and the frequency of charged pi-conjugated compound-resistant mutants was calculated. […]

The subject of data set [2] is A375 cancer cells (melanoma). Put plainly: Crystal violet cytotoxicity test in A375 cells without light activation. Format: cell-based, human. On the procedure:
The inhibitory concentration of charged pi-conjugated compounds needed to inhibit the cell growth by 50% (toxicity IC50).
Most of the charged pi-conjugated compounds are aminocyanines which are functionalized with alkyl amine group. The charged pi-conjugated compounds were added to cell cultures of A375 cancer cells (human melanoma) and their cytotoxicity was quantified by the crystal violet test and/or clonogenic assays for cell viability. […] The longer the exposure the most cytotoxic the charged pi-conjugated compounds are towards A375 cells. […] The same behavior is observed: the longer the exposure, the more cytotoxic. All molecules presented here are aminocyanines except GL-261-2 which is a carboxyl-cyanine. […] This was the first time a therapeutic window of concentration that can be tuned to selectively kill cancer and/or protect cells was suspected. In finding this therapeutic window concentration and time of exposure are important variables that should be fine tuned.
Based on the finding described above, a larger set of charged pi-conjugated compounds was evaluated for cytotoxicity against A375 cancer cells as shown in FIG. 25 and FIG. 26.
The IC50 is the concentration needed to inhibit the cell viability by 50%. These molecules in FIG. 25 and FIG. 26 were evaluated by crystal violet assay and using 2 days of exposure.

As for `C[N+]1=C(/C=C/C2=CC(=C/C=C3/N(CCCCCC(=O)NCCCCCCN)c4ccc5ccccc5c4C3(C)C)/CCC2)C(C)(C)c2c1ccc1ccccc21.Cl.[Cl-]` [Cy7.5-amine, Cyanine 7.5-amine], the IC50 in data set [1] worked out at 6.3 µM. The “MIC of spontaneous resistant mutants” value in the data set on S. aureus ATCC 25923 (mutants propagated on fresh plates, compared with WT strain) is “MIC indistinguishable from that of the WT”. Moreover, the spontaneous mutation rate in the data set on S. aureus ATCC 25923 (plates containing 4×, 8×, 16×MIC, resistant CFU / total CFU) is ≤ 10^−6. In addition, in data set [2], the IC50 was determined as 0.5 µM; the “cytotoxicity at short exposure” value is “safe and showed low cytotoxicity”.
